Experiments:
Format in all cases: cell-based
[1] = system: ISG gene expression induced by MSA-2 in human THP1-Blue-ISG cells; experiment: Inhibition of MSA-2-induced ISG gene expression in human THP1-Blue-ISG cells (Quanti-Blue, OD650); conditions: STING agonist MSA-2 10 µM, incubated for 24 hours
Description: (§1) 10 µL of compound diluted with PBS/physiological saline was added to each well of a 96 well cell culture plate. The STING agonist was MSA-2, which was added to the counted cell suspension at a final concentration of 10 µM. For the control group without compounds, 10 µL of PBS/physiological saline containing 2% DMSO was added. 3 replicate wells were set in each group. THP1-Blue-ISG cells were counted and adjusted to a cell concentration of 4× 10^5/mL, and 190 µL of cells containing STING agonist were added to each well for incubation. Therefore, the final volume of each test well was 200 µL, the content of DMSO was 0.1%, and the final concentration of the compound tested was 10/3.3/1.1/0.4/0.13/0.04/0.013/0.004 µM, incubated for 24 hours. In addition, 190 µL of cells without STING agonist and 10 µL of physiological saline containing 2% DMSO were added to the blank group. 3 replicate wells were set in each group.
After 24 hours, 20 µL of culture medium was taken from each well and transferred to a new 96 well plate. 180 µL of chromogenic solution Quanti-Blue was added. The plate was placed in a 37 °C incubator. After 2 hours, the OD650 values were measured.
Result analysis: Inhibition rate (%) = (Con(OD650)−Treated(OD650))/Con(OD650) × 100% [formula]
(§2) The IC50 calculation of inhibitors was implemented using the Graphpad Prism 8 software's calculation method log (inhibitor) vs. response - Variable slope (four parameters), with a constrain interval of 0-100.

[2] = system: DMXAA induced ISG gene expression in mouse RAW-Lucia cells; experiment: Inhibition of DMXAA-induced ISG gene expression in mouse RAW-Lucia cells (QUANTI-Luc); conditions: STING agonist DMXAA 50 µM, incubated for 24 hours
Description: 10 µL of compound diluted with PBS/physiological saline was added to each well of a 96 well cell culture plate. The STING agonist was DMXAA, which was added to the counted cell suspension at a final concentration of 50 µM. For the control group without compounds, 10 µL of PBS/physiological saline containing 2% DMSO was added. 3 replicate wells were set in each group. RAW-Lucia cells were counted and adjusted to a cell concentration of 4×10^5/mL, and […] of cells were added to each well for incubation. Therefore, the final volume of each test well was 200 µL, the content of DMSO was 0.1%, and the final concentration of the compound tested was 10/3.3/1.1/0.4/0.13/0.04/0.013/0.004 µM. The final concentration of STING agonist DMXAA was 50 µM. The mixture was incubated for 24 hours. In addition, 200 µL of culture medium was added to the blank group. 3 replicate wells were set in each group.
(§3) After 24 hours, 20 µL of culture medium was taken from each well and transferred to a new 96 well plate with photopermeable bottom. 50 µL of the luciferase detection reagent QUANTI-Luc™ was added, and the […] was immediately measured (avoid light).
Result analysis: Inhibition rate (%) = (Con(Lum)−Treated(Lum))/Con(Lum) × 100% [formula]
as §2

[3] = system: ISG gene expression induced by MSA-2 in human THP1-Dual cells; experiment: Inhibition of MSA-2-induced ISG gene expression in human THP1-Dual cells (QUANTI-Luc); conditions: STING agonist MSA-2 10 µM, incubated for 24 hours
Description: as §1, with “THP1-Dual” for “THP1-Blue-ISG”, “4×10^5/mL,” for “4× 10^5/mL,”
as §3, with “medium for THP1-Dual cells” for “medium”, “light). Result analysis:Inhibition rate (%) = (Con(Lum)−Treated(Lum))/Con(Lum) × 100% [formula]” for “light).”
as §2

Compound | IC50 [1] [nM] | IC50 [2] [nM] | IC50 [3] [nM]
O=C(Nc1ccc2c(c1)N(Cc1ccccc1)C(=O)CS2)Nc1c[nH]c2ccccc12 [A, reference compound] | 2300 | 161 | 
CC1(C)C(=O)N(Cc2ccsc2)c2cc(NC(=O)c3c[nH]c4ccccc34)ccc21 [B, reference compound] | > 10000 | > 1000 | 
O=C(Nc1cc2c(s1)SCC(=O)N2Cc1ccccc1)Nc1c[nH]c2ccccc12 [Example I-7, 1-(1-benzyl-2-oxo-2,3-dihydro-1H-thieno[2,3-b][1,4]thiazin-6-yl)-3-(1H-indol-3-yl)urea] | 390 |  | 
O=C(Nc1c[nH]c2ccccc12)c1ccc2c(c1)N(CC1CN(c3cc(F)cc(C(F)(F)F)c3)C1)C(=O)CS2 [Example I-9, 4-((1-(3-fluoro-5-trifluoromethylphenyl)azetidin-3-yl)methyl)-N-(1H-indol-3-yl)-3-oxo-3,4-dihydro-2H-benzo[b][1,4]thiazin-6-carboxamide] | 249 |  | 
CC1(C)C(=O)N(CC2CN(c3ccccc3)C2)c2cc(NC(=O)Nc3c[nH]c4ccccc34)ccc21 [Example I-12, 1-(3,3-dimethyl-2-oxo-1-((1-phenylazetidin-3-yl)methyl)indolin-6-yl)-3-(1H-indol-3-yl)urea] | 375 |  | 
O=C(Nc1ccc2c(c1)N(CC1CN(c3ccc4c(c3)OCO4)C1)C(=O)CS2)Nc1c[nH]c2ccccc12 [Example I-13, 1-(4-((1-(benzo[d][1,3]dioxolan-5-yl)azetidin-3-yl)methyl)-3-oxo-3,4-dihydro-2H-benzo[b][1,4]thiazin-6-yl)-3-(1H-indol-3-yl)urea] | 391 |  | 
O=C(Nc1c[nH]c2ccccc12)c1ccc2c(c1)N(Cc1cccs1)C(=O)CS2 [Example I-59, N-(1H-indol-3-yl)-3-oxo-4-(thien-2-ylmethyl)-3,4-dihydro-2H-benzo[b][1,4]thiazin-6-carboxamide] | 25 |  | 
O=C(Nc1c[nH]c2ccccc12)c1ccc2c(c1)N(Cc1ccco1)C(=O)CS2 [Example I-60, 4-(furan-2-ylmethyl)-N-(1H-indol-3-yl)-3-oxo-3,4-dihydro-2H-benzo[b][1,4]thiazin-6-carboxamide] | 42 |  | 
O=C(Nc1c[nH]c2ccccc12)c1ccc2c(c1)SCC(=O)N2Cc1ccoc1 [Example I-64, 4-(furan-3-ylmethyl)-N-(1H-indol-3-yl)-3-oxo-3,4-dihydro-2H-benzo[b][1,4]thiazin-7-carboxamide] | 139 |  | 
O=C(Nc1c[nH]c2ccccc12)c1ccc2c(c1)SCC(=O)N2Cc1ccc2occc2c1 [Example I-65, 4-(benzofuran-5-ylmethyl)-N-(1H-indol-3-yl)-3-oxo-3,4-dihydro-2H-benzo[b][1,4]thiazin-7-carboxamide] | 57 |  | 
O=C(Nc1c[nH]c2ccccc12)c1ccc2c(c1)SCC(=O)N2Cc1ccc2c(c1)OCO2 [Example I-66, 4-(benzo[d][1,3]dioxolan-5-ylmethyl)-N-(1H-indol-3-yl)-3-oxo-3,4-dihydro-2H-benzo[b][1,4]thiazin-7-carboxamide] | 73 |  | 
O=C(Nc1c[nH]c2ccccc12)c1cc2c(s1)SCC(=O)N2Cc1ccsc1 [Example I-112, N-(1H-indol-3-yl)-2-oxo-1-(thien-3-ylmethyl)-2,3-dihydro-1H-thieno[2,3-b][1,4]thiazin-6-carboxamide] |  | 41.9 | 46.5
O=C(Nc1c[nH]c2ccccc12)c1cc2c(s1)SCC(=O)N2Cc1ccc2occc2c1 [Example I-113, 1-(benzofuran-5-ylmethyl)-N-(1H-indol-3-yl)-2-oxo-2,3-dihydro-1H-thieno[2,3-b][1,4]thiazin-6-carboxamide] |  | 27.9 | 39.4
O=C(Nc1c[nH]c2ccccc12)c1cc2c(s1)SCC(=O)N2Cc1cc(F)cc(C(F)(F)F)c1 [Example I-115, 1-(3-fluoro-5-(trifluoromethyl)benzyl)-N-(1H-indol-3-yl)-2-oxo-2,3-dihydro-1H-thieno[2,3-b][1,4]thiazin-6-carboxamide] |  | 7.51 | 12.2
O=C(Nc1c[nH]c2ccccc12)c1cc2c(s1)SCC(=O)N2Cc1ccoc1 [Example I-117, 1-(furan-3-ylmethyl)-N-(1H-indol-3-yl)-2-oxo-2,3-dihydro-1H-thieno[2,3-b][1,4]thiazin-6-carboxamide] |  | 76.7 | 85
O=C(Nc1c[nH]c2ccccc12)c1cc2c(s1)SCC(=O)N2Cc1ccco1 [Example I-118, 1-(furan-2-ylmethyl)-N-(1H-indol-3-yl)-2-oxo-2,3-dihydro-1H-thieno[2,3-b] [1,4]thiazin-6-carboxamide] |  | 45.2 | 232
O=C(Nc1c[nH]c2ccccc12)c1cc2c(s1)SCC(=O)N2Cc1cccc2ccoc12 [Example I-120, 1-(benzofuran-7-ylmethyl)-N-(1H-indol-3-yl)-2-oxo-2,3-dihydro-1H-thieno[2,3-b][1,4]thiazin-6-carboxamide] |  | 8.7 | 96.5
O=C(Nc1c[nH]c2ccc(F)cc12)c1cc2c(s1)SCC(=O)N2Cc1ccco1 [Example I-121, N-(5-fluoro-1H-indol-3-yl)-1-(furan-2-ylmethyl)-2-oxo-2,3-dihydro-1H-thieno[2,3-b][1,4]thiazin-6-carboxamide] |  | 31.7 | 268
O=C(Nc1c[nH]c2ccc(F)cc12)c1cc2c(s1)SCC(=O)N2Cc1ccoc1 [Example I-122, N-(5-fluoro-1H-indol-3-yl)-1-(furan-3-ylmethyl)-2-oxo-2,3-dihydro-1H-thieno[2,3-b][1,4]thiazin-6-carboxamide] |  | 15.9 | 272
O=C(Nc1c[nH]c2ccc(Cl)cc12)c1cc2c(s1)SCC(=O)N2Cc1cc(F)cc(C(F)(F)F)c1 [Example I-123, N-(5-chloro-1H-indol-3-yl)-1-(3-fluoro-5-(trifluoromethyl)benzyl)-2-oxo-2,3-dihydro-1H-thieno[2,3-b][1,4]thiazin-6-carboxamide] |  | 5.71 | 69
O=C(Nc1c[nH]c2ccc(F)cc12)c1cc2c(s1)SCC(=O)N2Cc1cc(F)cc(C(F)(F)F)c1 [Example I-124, N-(5-fluoro-1H-indol-3-yl)-1-(3-fluoro-5-(trifluoromethyl)benzyl)-2-oxo-2,3-dihydro-1H-thieno[2,3-b][1,4]thiazin-6-carboxamide] |  | < 3 | 48
O=C(Nc1c[nH]c2cc(F)c(F)cc12)c1cc2c(s1)SCC(=O)N2Cc1cc(F)cc(C(F)(F)F)c1 [Example I-125, N-(5,6-difluoro-1H-indol-3-yl)-1-(3-fluoro-5-(trifluoromethyl)benzyl)-2-oxo-2,3-dihydro-1H-thieno[2,3-b][1,4]thiazin-6-carboxamide] |  | 5.26 | 76.6
CC1(C)C(=O)N(Cc2cccc3ccoc23)c2cc(C(=O)Nc3c[nH]c4ccc(F)cc34)ccc21 [Example I-126, 1-(benzofuran-7-ylmethyl)-N-(5-fluoro-1H-indol-3-yl)-3,3-dimethyl-2-oxoindolin-6-carboxamide] |  | 58.5 | 58.5
CC1(C)C(=O)N(Cc2cccc3ccoc23)c2cc(C(=O)Nc3c[nH]c4ccc(Cl)cc34)ccc21 [Example I-128, 1-(benzofuran-7-ylmethyl)-N-(5-chloro-1H-indol-3-yl)-3,3-dimethyl-2-oxoindolin-6-carboxamide] |  | 39.4 | 39.4

— patent publication EP4748844A1, “AZETIDINE COMPOUND AND MEDICAL USE THEREOF” (SHANGHAI INSTITUTE OF MATERIA MEDICA, CHINESE ACADEMY OF …, priority 2023, dated 2025)
